Assay results: ChEMBL document CHEMBL2417438, “Preparation and antitrypanosomal activity of secochiliolide acid derivatives” (Bioorg Med Chem Lett, 2013)
≈ marks a conversion by molar mass, not a printed value. Calls of active or inactive are those of the source. The rule behind the calls is not given here.

What was measured:
Trypanosoma cruzi [1] = experiment: Antiparasitic activity against epimastigotes of Trypanosoma cruzi assessed as inhibition of parasite proliferation; type: functional, organism-based
Trypanosoma cruzi [2] = experiment: Antiparasitic activity against epimastigotes of Trypanosoma cruzi assessed as inhibition of parasite proliferation at 1 to 10 ug/ml; type: functional, organism-based
[3] = Trypanosoma cruzi, read-out: IC50

| Structure (SMILES) | IC50 (Trypanosoma cruzi [1]; [3]) [µg/mL] | IC50 (Trypanosoma cruzi [1]) | inhibition (Trypanosoma cruzi [2]) |
| --- | --- | --- | --- |
| O=C(Cn1ccnc1[N+](=O)[O-])NCc1ccccc1 [BENZNIDAZOLE] | 2.5 (≈ 9.61 µM) |  |  |
| COC(=O)CC[C@@H]1[C@@]2(C[C@@H](c3ccoc3)OC2=O)[C@H](C)CC[C@@]12OC2(C)C |  | Not Active |  |
| CC(C)=C1CC[C@@H](C)[C@]2(C[C@@H](c3ccoc3)OC2=O)[C@H]1CCNC(=O)OC(C)(C)C | 2 (≈ 4.79 µM) |  |  |
| C=C(C)[C@]12CC[C@@H](C)[C@]3(C[C@@H](c4ccoc4)OC3=O)[C@H]1CCC(=O)O2 | 5 (≈ 14.5 µM) |  |  |
| CC(C)=C1CC[C@@H](C)[C@]2(C[C@@H](c3ccoc3)OC2=O)[C@H]1CCC1=CC(=O)C=CC1=O | 2 (≈ 4.9 µM) |  |  |
| CC(C)=C1CC[C@@H](C)[C@]2(C[C@@H](c3ccoc3)OC2=O)[C@H]1CCc1cc(O)ccc1O | 7 (≈ 17.1 µM) |  |  |
| CC(C)=C1CC[C@@H](C)[C@]2(C[C@@H](c3ccoc3)OC2=O)[C@H]1CCNC(=O)NCC[C@H]1C(=C(C)C)CC[C@@H](C)[C@]12C[C@@H](c1ccoc1)OC2=O | 5 (≈ 7.57 µM) |  |  |

Further lines, with some results ahead:

| IC50 (Trypanosoma cruzi [1]; [3]) [µg/mL] | IC50 (Trypanosoma cruzi [1]) | Structure (SMILES) | inhibition (Trypanosoma cruzi [2]) |
| --- | --- | --- | --- |
|  | Not Active | CC(C)=C1CC[C@@H](C)[C@]2(C[C@@H](c3ccoc3)OC2=O)[C@H]1CCN=C=O |  |
| 2 (≈ 5.77 µM) |  | CC(C)=C1CC[C@@H](C)[C@]2(C[C@@H](c3ccoc3)OC2=O)[C@H]1CCC(=O)O | Active |
| 4 (≈ 10.4 µM) |  | CC(C)=C1CC[C@@H](C)[C@]2(C[C@@H](c3ccoc3)OC2=O)[C@H]1CCNC(=O)N=[N+]=[N-] |  |
|  | Not Active | CC(C)=C1CC[C@@H](C)[C@]2(C[C@@H](c3ccoc3)OC2=O)[C@H]1CCC(=O)OC(C)(C)C |  |
